{"source": "patent US11518788B2", "about": "“Methods and compositions for treating and preventing viral infection” (priority 2020, dated 2022)", "tested_on": "SARS-CoV-2 variant D614G", "assay_type": "cell-based"}
{"substance": "ACE2-Fc", "values": [{"measurement": "inhibition of infection by SARS-CoV-2 variant D614G", "value": "inhibited infection"}]}
